# Measurements as given in patent publication US8088761B2, “Enzyme inhibitors” (Cancer Research Technology Limited, priority 2005, dated 2012).
# What was measured:
# [1] = molecular target: T1, Aurora-A (Homo sapiens, UniProt O14965); test: Flashplate Aurora A enzyme inhibition assay; type: biochemical; settings: Flashplate assay; IC50 range; read-out: Aurora-A inhibition
# T1 sequence (O14965 1-403): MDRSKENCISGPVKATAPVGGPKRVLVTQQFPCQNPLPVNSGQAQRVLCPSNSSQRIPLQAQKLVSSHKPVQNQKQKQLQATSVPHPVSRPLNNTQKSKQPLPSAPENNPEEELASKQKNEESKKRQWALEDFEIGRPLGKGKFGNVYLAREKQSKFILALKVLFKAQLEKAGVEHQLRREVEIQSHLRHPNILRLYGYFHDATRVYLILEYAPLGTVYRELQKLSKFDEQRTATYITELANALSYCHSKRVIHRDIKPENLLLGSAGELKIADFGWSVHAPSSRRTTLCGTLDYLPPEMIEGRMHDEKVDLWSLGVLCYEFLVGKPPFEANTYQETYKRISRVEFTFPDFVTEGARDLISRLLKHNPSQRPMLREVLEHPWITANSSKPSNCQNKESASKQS
# Method: Flashplate® Assay for Identification and Evaluation of Aurora-A Inhibitors
# On this assay 384-well Basic Flashplate® (SMP400E, PerkinElmer) as solid assay platform was used. The plates were coated overnight at 4° C. with […] at 100 μg/ml in PBS buffer and used after being washed twice with PBS. 5 μl of compound in 2% DMSO was added to each well followed by 15 μl master mix of kinase buffer (50 mM Tris pH 7.5, 10 mM NaCl, 2.5 mM MgCl2, 1 mM […], 20 μM ATP, and 0.025 μCi/μl ^33P-ATP). Finally, 250 ng per well of Aurora-A enzyme was added. The plate was shaken for approximately 2 min on a flat-bed plate shaker (Wellmix, Denley, UK) and incubated for 2 hours at room temperature. The reaction was stopped by washing the plate twice on a 16-pin wash (ELX50 BioTek Instruments Ltd., Northstar, Bedford, UK) with 10 mM sodium pyrophosphate. The plate was then read on a TopCount-NX™ (PerkinElmer Life Sciences UK Ltd., Hounslow, UK).
# [2] = system: HCT116 cells; test: Cell viability assay (MTT) in HCT116 cell line; type: cell-based; settings: Homo sapiens, HCT-116, 72 hrs, IC50 range, read-out: HCT116 cell growth inhibition
# Method: Cell Viability Assay: Determination of IC50 of Aurora Inhibitors in HCT116 Cell Line Using MTT Assay. The effects of compounds of the Examples on cellular proliferation were determined using the MTT assay according to manufacturer's instructions (Sigma). Briefly, the human colon tumour cells HCT116, were seeded in triplicate into 96-well plates at 2500 cells/well 24 hours before treatment with a range of concentrations of Aurora inhibitors (0-50 μM). After 72 hrs, 15 μl/well of 0.5% 3-(4,5-dimethylthiazol-2-yl)-2,5-diphenyltetrazolium bromide (MTT) was added to the cells for 4 hrs at 37° C., the dye-stained viable cells were extracted by adding 150 μl/well of dimethyl sulphoxide (DMSO). […] The IC50 was calculated using the Prism software.
SMILES,IC50 [1] [nM],IC50 [2] [nM]
"CC(C)c1nc(CN2CCN(c3c(Br)cnc4[nH]c(-c5ccc(CN6CCOCC6)cc5)nc34)CC2)cs1 [Example 155, 4-(4-(6-Bromo-7-(4-((2-isopropylthiazol-4-yl)methyl)piperazin-1-yl)-3H-imidazo[4,5-b]pyridin-2-yl)benzyl)morpholine]",< 500,2000 to 50000
"Cc1cc(NC(=O)CN2CCN(c3c(Cl)cnc4[nH]c(-c5ccc(N(C)C)cc5)nc34)CC2)on1 [Example 63, 2-(4-(6-Chloro-2-(4-(dimethylamino)phenyl)-3H-imidazo[4,5-b]pyridin-7-yl)piperazin-1-yl)-N-(3-methylisoxazol-5-yl)acetamide]",< 500,500 to 2000
"O=C(CN1CCN(c2c(Cl)cnc3[nH]c(-c4ccc(CN5CCOCC5)cc4)nc23)CC1)Nc1nccs1 [Example 76, 2-{4-[6-Chloro-2-(4-morpholin-4-ylmethyl-phenyl)-3H-imidazo[4,5-b]pyridin-7-yl]-piperazin-1-yl}-N-thiazol-2-yl-acetamide]",< 500,< 500
"COc1ccc(-c2nc3c(N4CCN(Cc5cccnc5)CC4)c(Br)cnc3[nH]2)cn1 [Example 94, 6-Bromo-2-(6-methoxypyridin-3-yl)-7-(4-(pyridin-3-ylmethyl)piperazin-1-yl)-3H-imidazo[4,5-b]pyridine]",< 500,2000 to 50000
COc1cccc(-c2nc3c(N4CCN(CC(=O)Nc5nccs5)CC4)c(Br)cnc3[nH]2)c1 [Example 29],< 500,500 to 2000
"COc1ccc(-c2nc3c(N4CCN(Cc5cncn5C)CC4)c(Br)cnc3[nH]2)cc1 [Example 165, 6-Bromo-2-(4-methoxyphenyl)-7-(4-((1-methyl-1H-imidazol-5-yl)methyl)piperazin-1-yl)-3H-imidazo[4,5-b]pyridine]",< 500,500 to 2000
"Brc1cnc2[nH]c(-c3ccc(Cn4cccn4)cc3)nc2c1N1CCN(Cc2cccnc2)CC1 [Example 107, 2-(4-((1H-Pyrazol-1-yl)methyl)phenyl)-6-bromo-7-(4-(pyridin-3-ylmethyl)piperazin-1-yl)-3H-imidazo[4,5-b]pyridine]",< 500,500 to 2000
"COc1ccc(-c2nc3c(N4CCN(Cc5ccncc5)CC4)c(Br)cnc3[nH]2)cc1 [Example 67, 6-Bromo-2-(4-methoxy-phenyl)-7-(4-pyridin-4-ylmethyl-piperazin-1-yl)-3H-imidazo[4,5-b]pyridine]",< 500,< 500
"Brc1cnc2[nH]c(-c3ccc(N4CCOCC4)cc3)nc2c1N1CCN(Cc2cncnc2)CC1 [Example 123, 4-(4-(6-Bromo-7-(4-(pyrimidin-5-ylmethyl)piperazin-1-yl)-3H-imidazo[4,5-b]pyridin-2-yl)phenyl)morpholine]",< 500,500 to 2000
"CN(C)Cc1ccc(-c2nc3c(N4CCN(CC(=O)Nc5nccs5)CC4)c(Br)cnc3[nH]2)cc1 [Example 8, 2-{4-[6-Bromo-2-(4-dimethylaminomethyl-phenyl)-3H-imidazo[4,5-b]pyridin-7-yl]-piperazin-1-yl}-N-thiazol-2-yl-acetamide]",< 500,500 to 2000
"Cc1nc(CN2CCN(c3c(Cl)cnc4[nH]c(-c5ccc(CN6CCOCC6)cc5)nc34)CC2)cs1 [Example 172, 4-(4-(6-Chloro-7-(4-((2-methylthiazol-4-yl)methyl)piperazin-1-yl)-3H-imidazo[4,5-b]pyridin-2-yl)benzyl)morpholine]",< 500,500 to 2000
"CN(C)CCOc1ccc(-c2nc3c(N4CCN(CC(=O)Nc5nccs5)CC4)c(Cl)cnc3[nH]2)cc1 [Example 186, 2-(4-(6-Chloro-2-(4-(2-(dimethylamino)ethoxy)phenyl)-3H-imidazo[4,5-b]pyridin-7-yl)piperazin-1-yl)-N-(thiazol-2-yl)acetamide]",< 500,< 500
"COc1ccc(-c2nc3c(N4CCN(Cc5cncnc5)CC4)c(Cl)cnc3[nH]2)cc1 [Example 139, 6-Chloro-2-(4-methoxyphenyl)-7-(4-(pyrimidin-5-ylmethyl)piperazin-1-yl)-3H-imidazo[4,5-b]pyridine]",< 500,500 to 2000
"CN(C)c1ccc(-c2nc3c(N4CCN(CC(=O)Nc5cccc(Cl)c5)CC4)c(Cl)cnc3[nH]2)cc1 [Example 24, 2-(4-(6-Chloro-2-(4-(dimethylamino)phenyl)-3H-imidazo[4,5-b]pyridin-7-yl)piperazin-1-yl)-N-(3-chlorophenyl)acetamide]",< 500,2000 to 50000
"COc1ccc(-c2nc3c(N4CCN(Cc5csc(C)n5)CC4)c(Br)cnc3[nH]2)cc1 [Example 144, 4-((4-(6-Bromo-2-(4-methoxyphenyl)-3H-imidazo[4,5-b]pyridin-7-yl)piperazin-1-yl)methyl)-2-methylthiazole]",< 500,< 500
"CC(c1ccncc1)N1CCN(c2c(Br)cnc3[nH]c(-c4ccc(CN5CCOCC5)cc4)nc23)CC1 (centres unmarked) [Example 129, 4-(4-(6-Bromo-7-(4-(1-(pyridin-4-yl)ethyl)piperazin-1-yl)-3H-imidazo[4,5-b]pyridin-2-yl)benzyl)morpholine]",< 500,< 500
"COc1ccc(-c2nc3c(N4CCN(Cc5coc(C(C)C)n5)CC4)c(Br)cnc3[nH]2)cc1 [Example 145, 4-((4-(6-bromo-2-(4-methoxyphenyl)-3H-imidazo[4,5-b]pyridin-7-yl)piperazin-1-yl)methyl)-2-isopropyloxazole]",< 500,< 500
"NCc1ccc(-c2nc3c(N4CCC(Oc5ccccc5)CC4)c(Br)cnc3[nH]2)cc1 [Example 135, (4-(6-Bromo-7-(4-phenoxypiperidin-1-yl)-3H-imidazo[4,5-b]pyridin-2-yl)phenyl)methanamine]",< 500,500 to 2000
"CC(C)(C)OC(=O)NCc1nc2c(N3CCN(Cc4cccnc4)CC3)c(Br)cnc2[nH]1 [Example 99, tert-Butyl (6-bromo-7-(4-(pyridin-3-ylmethyl)piperazin-1-yl)-3H-imidazo[4,5-b]pyridin-2-yl)methylcarbamate]",2000 to 10000,2000 to 50000
"NCc1nc2c(N3CCN(Cc4cccnc4)CC3)c(Br)cnc2[nH]1 [Example 100, (6-Bromo-7-(4-(pyridin-3-ylmethyl)piperazin-1-yl)-3H-imidazo[4,5-b]pyridin-2-yl)methanamine]",2000 to 10000,2000 to 50000
"O=C(CN1CCN(c2c(Cl)cnc3[nH]c(-c4ccc(OCCO)cc4)nc23)CC1)Nc1nccs1 [Example 183, 2-(4-(6-Chloro-2-(4-(2-hydroxyethoxy)phenyl)-3H-imidazo[4,5-b]pyridin-7-yl)piperazin-1-yl)-N-(thiazol-2-yl)acetamide]",< 500,500 to 2000
"Clc1cnc2[nH]c(-c3ccc(CN4CCOCC4)cc3)nc2c1N1CCN(Cc2cccnc2)CC1 [Example 79, 6-Chloro-2-(4-morpholin-4-ylmethyl-phenyl)-7-(4-pyridin-3-ylmethyl-piperazin-1-yl)-3H-imidazo[4,5-b]pyridine]",< 500,< 500
"O=C(CN1CCN(c2c(Cl)cnc3[nH]c(-c4ccc5c(c4)OCCO5)nc23)CC1)Nc1nccs1 [Example 87, 2-{4-[6-Chloro-2-(2,3-dihydro-benzo[1,4]dioxin-6-yl)-3H-imidazo[4,5-b]pyridin-7-yl]-piperazin-1-yl}-N-thiazol-2-yl-acetamide]",< 500,500 to 2000
"COc1ccc(-c2nc3c(N4CCN(Cc5ccc(C(F)(F)F)nc5)CC4)c(Br)cnc3[nH]2)cc1 [Example 124, 6-Bromo-2-(4-methoxyphenyl)-7-(4-((6-(trifluoromethyl)pyridin-3-yl)methyl)piperazin-1-yl)-3H-imidazo[4,5-b]pyridine]",< 500,500 to 2000
"OC1CCN(c2ccc(-c3nc4c(N5CCN(Cc6cccnc6)CC5)c(Br)cnc4[nH]3)cc2)CC1 [Example 114, 1-(4-(6-Bromo-7-(4-(pyridin-3-ylmethyl)piperazin-1-yl)-3H-imidazo[4,5-b]pyridin-2-yl)phenyl)piperidin-4-ol]",< 500,< 500
